Experimental data as given in publication PMC8878317, “Chemogenomics identifies acetyl-coenzyme A synthetase as a target for malaria treatment and prevention” (Cell Chemical Biology, 2022).

Test system: P. falciparum 3D7 parasites
Experiment: Metabolomic profiling of compound-treated parasites (LC/MS);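 for Metabolite data: 3-Phosphoglycerate: Log2 fold change in abundance versus untreated parasite controls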;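 for Metabolite data: Myo-Inositol: Log2 fold change in abundance versus untreated parasite controls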;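 for Metabolite data: N-Carbamoyl-L-Aspartate: Log2 fold change in abundance versus untreated parasite controls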;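 for Metabolite data: Nicotinate: Log2 fold change in abundance versus untreated parasite controls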
Assay type: cell-based
Parameters: Metabolite data: dTMP / Metabolite data: GMP / Metabolite data: S-Adenosyl-L-Homocysteine / Metabolite data: 1_3-Bisphosphoglyceric acid: scale not given here
Method: The metabolite extraction protocol was performed as described elsewhere ([Allman et al., 2016]). Briefly, 1 mL of trophozoites that were magnetically purified to a concentration of 1×10^8 parasites/mL were placed into wells with 4 mL of RPMI 1640 media and allowed to recover for one hour. […] The culture was incubated for another 2.5 hr. The culture was centrifuged and quenched with 90% methanol containing 0.25 μM ^13C,^15N-Labeled-Aspartate, vortexed, and centrifuged. The supernatant was transferred to a new tube and dried for storage. Prior to analysis, the samples were resuspended to a final concentration of 1×10^8 parasites/mL in a solution of 3% methanol:water containing 1 μM chlorpropamide as an internal standard.
The chromatographic conditions used in this experiment were performed with slight modifications from previous methods ([Zhang et al., 2018]). Briefly, a Waters XSelect HSS C18 column was used on a gradient reverse-phase chromatographic configuration with 97:3 water:methanol with 10 mM tributylamine and 15 mM acetic acid (solvent A) and methanol (solvent B). A Thermo-Scientific Exactive Plus Orbitrap mass spectrometer was operated in negative mode for the detection of the metabolites. Peak picking and integration were performed using El-Maven LC/MS data processing software. The peak data were then exported to Excel where metabolite areas were normalized to the internal standards, blank subtracted, and averaged by condition.

## CCN(CC)S(=O)(=O)c1ccc(Cl)c(C(=O)Nc2ccc3nc(C)sc3c2)c1 [MMV019721-1]
  Metabolite data: 1_3-Bisphosphoglyceric acid: -0.1327
  Metabolite data: 2_3-Diphosphoglyceric acid: -0.1327
  Metabolite data: 3-Phosphoglycerate: 0.1031
  Metabolite data: 4-Aminobutyrate: 0.07842
  Metabolite data: 4-Phosphopantothenate: -0.4201
  Metabolite data: 4-phosphopantetheine: 0.1181
  Metabolite data: 5-aminopentanoic acid: 0.1488
  Metabolite data: 5-phosphoribosyl-1-pyrophosphate: -0.2633
  Metabolite data: 6-Phospho-D-Gluconate: -0.03558
  Metabolite data: ADP-D-Glucose: -0.0516
  Metabolite data: Acetyl-CoA: -1.632
  Metabolite data: Acetyllysine: -1.142
  Metabolite data: Aconitate: 0.3403
  Metabolite data: CDP: 0.8015
  Metabolite data: CDP-Ethanolamine: -0.104
  Metabolite data: CDP-choline: -0.1284
  Metabolite data: CMP: 0.9966
  Metabolite data: CTP: 0.6705
  Metabolite data: Citrate/Isocitrate: 0.04997
  Metabolite data: Cyclic-AMP: 0.2994
  Metabolite data: Dihydroorotate: -0.5549
  Metabolite data: FAD: 0.1056
  Metabolite data: FMN: -0.0123
  Metabolite data: Fructose-1,6-Bisphosphate: -0.009501
  Metabolite data: Fumarate: 0.02182
  Metabolite data: GDP: 0.2889
  Metabolite data: GMP: 0.4991
  Metabolite data: GTP: 0.06975
  Metabolite data: Glucose-1/6-Phosphate: -0.427
  Metabolite data: Glutathione Disulfide: 0.05831
  Metabolite data: Hexose: 0.379
  Metabolite data: Hydroxyisocaproic acid: -0.1664
  Metabolite data: Indole: 0.2013
  Metabolite data: Ketoleucine: -0.05747
  Metabolite data: L-arginino-succinate: 0.0004889
  Metabolite data: Lactate: 0.02998
  Metabolite data: Malate: 0.2897
  Metabolite data: Myo-Inositol: 0.2086
  Metabolite data: N-Acetyl-Glutamate: -0.6054
  Metabolite data: N-Acetyl-L-Alanine: 0.6768
  Metabolite data: N-Acetyl-L-Ornithine: -0.7962
  Metabolite data: N-Carbamoyl-L-Aspartate: -1.055
  Metabolite data: NAD+: 0.01132
  Metabolite data: NADH: 0.3116
  Metabolite data: NADP+: -0.07183
  Metabolite data: NADPH: 0.3145
  Metabolite data: Nicotinate: -0.004899
  Metabolite data: Octulose 8/1-Phosphate: 0.05155
  Metabolite data: Orotate: -0.6691
  Metabolite data: PD: -0.67
  Metabolite data: PE: -0.6545
  Metabolite data: PEEK: -0.6134
  Metabolite data: Phenol Red: 0.04234
  Metabolite data: Pyroglutamic acid: 0.6121
  Metabolite data: S-Adenosyl-L-Homocysteine: -0.2319
  Metabolite data: S-methyl-5'-thioadenosine: -0.02605
  Metabolite data: SD: -0.5163
  Metabolite data: Sedoheptulose Bisphosphate: -0.09842
  Metabolite data: UDP: 0.4977
  Metabolite data: UDP-D-Glucose: 0.03674
  Metabolite data: UDP-D-Glucuronate: 0.09403
  Metabolite data: UDP-N-Acetyl-Glucosamine: -0.09294
  Metabolite data: UMP: 0.6643
  Metabolite data: UTP: 0.267
  Metabolite data: a-ketoglutarate: 0.1182
  Metabolite data: acetyl-aspartate: 0.3762
  Metabolite data: arginine: 0.5929
  Metabolite data: asparagine: -0.2373
  Metabolite data: aspartate: 0.131
  Metabolite data: biotin: -0.04985
  Metabolite data: chlorpropamide: 0.3559
  Metabolite data: coenzyme A: 0.324
  Metabolite data: dAMP: 0.02964
  Metabolite data: dATP: 0.04443
  Metabolite data: dCDP: 0.4313
  Metabolite data: dCMP: 0.6234
  Metabolite data: dCTP: 0.2767
  Metabolite data: dGDP/ADP: 0.453
  Metabolite data: dGMP/AMP: 0.01705
  Metabolite data: dGTP/ATP: -0.2944
  Metabolite data: dTDP: 0.442
  Metabolite data: dTMP: 0.5345
  Metabolite data: dTTP: -0.02333
  Metabolite data: folate: 0.09364
  Metabolite data: glucono-lactone: 0.02131
  Metabolite data: glutamate: 0.09413
  Metabolite data: glutamine: 0.06047
  Metabolite data: glutathione: -0.1419
  Metabolite data: histidine: -0.01478
  Metabolite data: hydroxyproline/Aminolevulinate: 0.7882
  Metabolite data: isoleucine: 0.1307
  Metabolite data: leucine: 0.06401
  Metabolite data: maleic acid: 0.03547
  Metabolite data: methionine: 0.07829
  Metabolite data: nicotinamide mononucleotide: -0.2621
  Metabolite data: orotidine-5'-phosphate: -2.856
